Laboratory results reported in PMC4764201, “High Throughput Screen for Escherichia coli Twin Arginine Translocation (Tat) Inhibitors” (PLoS ONE, 2016).

Test system: Escherichia coli Tat pathway
Assay: Live cell assay: total mCherry fluorescence of cells producing spTorA-mCherry-SsrA (primary HTS assay)
Assay type: cell-based
Settings: Escherichia coli, read-out: IC50 (Live Cell Assay)
Excerpt: Having obtained the calibration and validation data described in the previous sections, we next established the protocol for the HTS. Details are provided in the Materials and Methods section. Here, we briefly summarize the assay. A single colony of E. coli strain MC4100(DE3) containing plasmids encoding TatABC and spTorA-mCherry-SsrA was inoculated into LB and grown overnight. The next morning, cells were transferred to fresh media, the production of TatABC and spTorA-mCherry-SsrA was induced, and cultures were aliquoted onto plates with test compounds. NaSCN was included in control wells to simulate a hit. Cells were grown for 8 h, followed by incubation at 4°C overnight, and then read the next day. Setting the total cellular fluorescence obtained with spTorA-mCherry-H6 under Tat^++ conditions to 100%, spTorA-mCherry-SsrA yielded a total cellular fluorescence signal of 63±14%, consistent with SsrA-induced degradation of the mCherry protein. The total cellular fluorescence was further reduced to 36±14% in the presence of 30 mM NaSCN (simulated hit), and to 41±6% in the absence of TatABC, verifying the Δψ- and Tat-dependence of the fluorescence signal (Fig 4D).
A single colony of E. coli strain MC4100(DE3) (pTatABC-DUET1, pTorA-mCherry-SsrA) was inoculated into a 100 mL LB culture supplemented with Ap and Cm and grown at 37°C with shaking (250 rpm) overnight. Cells were harvested by centrifugation at 4,000g for 10 min at room temperature (RT), suspended in 10 mL fresh LB broth supplemented with Ap and Cm, and the optical density (A500) was determined. Simultaneously, 700 mL LB supplemented with 100 mM arabinose, 2 mM IPTG, 100 μg/mL Ap and 68 μg/mL Cm was filter-sterilized (0.22 μm), and then divided into 200 mL (A) and 500 mL (B) portions. Sterile NaSCN (30 mM final; 1.5 mL of 4 M NaSCN) was added to portion A, and an equal ratio of sterile water was added to portion B (3.75 mL). Media and cells were transferred to the HTS facility on ice.
A CyBi-Well vario pipetting workstation (CyBio, Jena, Germany) was used to dispense library compounds and cultures. Library compounds (1 μL) solubilized in DMSO were added to 384-well black, clear-bottomed plates (Greiner Bio-one, Germany) in columns 3 to 22 (320 wells/plate). For controls, DMSO (1 μL) was added to each well in columns 1, 2, […], to achieve DMSO uniformity across the plate. Both portions of LB media were inoculated with E. coli MC4100(DE3) (pTatABC-DUET1, pTorA-mCherry-SsrA) from the concentrated stock to a final A500 = 0.15. The media with 30 mM NaSCN (positive control, or simulated hit) was dispensed into each well of columns 1 and 24 (49 μL each). An equivalent volume of media without NaSCN was dispensed into each well of columns 2 to 23. Columns 2 and 23 lacked NaSCN and test compounds and served as negative controls. The first 12,800 compounds were screened at 5 μM (plates 1–40), and the remaining 38,800 compounds were screened at 20 μM (plates 41–162).
The plates containing cells and dispersed test compounds were grown with shaking (200 rpm) at 25°C for 8 h. Plates were individually mounted, not stacked, on a hollow plastic platform, allowing adequate air circulation. Following the 8 h incubation, plates were transferred to 4°C for 16 h. Each plate was covered with an empty plate to prevent condensation on the lid. […] Following the incubation, plates were read using a BMG Polarstar Omega plate reader (BMG Labtech, Ortenberg, Germany) to determine optical densities (A500) and mCherry fluorescence intensities (EX = 584 nm, EM = 620 nm).
Supplementary file pone.0149659.s003.tiff: S3 Fig IC50's for Hit Compound 181^JS. (A) The total cellular mCherry fluorescence (live cell assay; n = 1), (B) the in vitro NADH-dependent Tat transport efficiency of pre-SufI (n = 1), and (C) the maximum transmembrane electrical potential gradient (n = 1) were measured for a range of concentrations of compound 181^JS (S2E Fig). (D) SDS-PAGE gel showing in-gel fluorescence data used in (B). […]

Compound | IC50
N#CC(C#N)=NNc1ccccc1Br [Compound 1, [(2-bromophenyl)hydrazono]malononitrile] | 6 µM
Oc1cc(Cl)ccc1Oc1ccc(Cl)cc1Cl [Compound 18^NIH, 5-Chloro-2-(2,4-dichlorophenoxy)phenol] | 2 µM
O=[N+]([O-])c1cc([N+](=O)[O-])c2ccccc2c1Cl [Compound 51, 1-chloro-2,4-dinitronaphthalene] | 20 µM
FC(F)(F)c1cccc(-c2cccc3cnccc23)c1 [Compound 140, 5-[3-(trifluoromethyl)phenyl]isoquinoline] | 14 µM
O=C(Nc1cccc(C(F)(F)F)c1)Nc1ncc([N+](=O)[O-])s1 [Compound 181^JS, 1-(5-nitro-1,3-thiazol-2-yl)-3-[3-(trifluoromethyl)phenyl]urea] | 20 µM
O=[N+]([O-])c1ccc(O)c(-c2cccs2)c1 [Compound 202, 4-nitro-2-thiophen-2-ylphenol] | 5 µM

Same assay, conditions: Tat++ conditions; appears to be a consequence of growth inhibition

Compound | effect on synthesis of spTorA-mCherry-SsrA
Cc1ccc(S(=O)(=O)/C=C/C#N)cc1 [Bay 11–7082] | inhibited synthesis
O=C1C=CC(=O)N1c1ccccc1 [N-phenylmaleimide] | inhibited synthesis

Same assay, conditions: mCherry fluorescence intensity during in vivo cell growth, Tat++ conditions, 384-well plate; read-out: IC50 (Live Cell Assay)

Compound | IC50
N#CC1c2ccccc2-n2nncc2CN1Cc1cc(Cl)cc(Cl)c1 (stereo not shown) [21^NIH, 5-[(3,5-dichlorophenyl)methyl]-4,6-dihydrotriazolo[1,5-a][1, 4]benzodiazepine-6-carbonitrile] | 13 µM
Fc1nc(F)c(F)c(NNC(=S)Nc2cccc(C(F)(F)F)c2)c1F [Compound 111, 1-[(2,3,5,6-tetrafluoropyridin-4-yl)amino]-3-[(3-trifluoromethyl)phenyl]thiourea] | 31 µM
